Measured values as given in patent US20040198663A1, “Method of treating cardiac ischemia by using erythropoietin” (priority 2003, published 2004).

Columns and labels:
PKCε = assay: Western analysis of cytosolic and particulate fractions of erythropoietin-treated hearts; parameters: species or system rabbit; conditions: erythropoietin 1.0 U/ml
Method: (§1) Western analysis. Hearts from infant rabbits were isolated and aerobically perfused with bicarbonate buffer for 30 minutes at constant pressure, then perfused with erythropoietin for 5 or 15 minutes. The free wall of the left ventricle was excised and immediately freeze-clamped between stainless steel tongs pre-cooled with liquid nitrogen. Frozen myocardial tissue samples were powdered in a pre-cooled stainless steel mortar and pestle.
(§2) The powdered tissue was then processed to obtain cytosolic and particulate fractions for Western analysis, as described in Raflee et al., Circulation 106:239-45 (2002). Powdered tissue was homogenized in sample buffer (50 mM Tris pH 7.5, 5 mM EDTA, 10 mM EGTA, 10 mM benzamidine, 10 μg/ml pepstatin A, 50 μg/ml PMSE, 10 μg/ml aprotinin, 10 μg/ml leupeptin, and 0.3% β-mercaptoenthanol) on ice for 50 strokes. Nuclei and cellular debris was removed by centrifugation (1000 g at. 4° C. for 15 min). The supernatant was transferred to a new cold 1.5 mL microcentrifuge tube. The cytosolic and particulate portions of total cellular proteins were separated by a 30-minute centrifugation at 45000 g. Protein concentrations were determined by the method of Bradford. Equal amounts of protein were analyzed by SDS-PAGE and Western blotting by using either isoform-specific antibodies for phospho-PKC detection or specific antibodies against phosphorylated and non-phosphorylated p38 MAPK, JNK, and p42/44 MAPK. The blots were developed by ECL. Densitometry was performed on each sample and analyzed with the use of NIH image software. Rafiee et al., Circulation 106:239-45 (2002).
(§3) Cytosolic and particulate fractions from erythropoietin-treated and untreated hearts were prepared. Protein content for PKCε, p38 MAP kinase, p42/44 MAP kinase and JUN kinase was determined by SDS-PAGE and Western blot analysis using monoclonal antibodies specific for PKCε, phosphorylated p38 MAP kinase (Thr180/Tyr182), p42/44 MAP kinase (Thr202/Tyr204), and JUN kinase (Thr183/Tyr185). Non-phosphorylated antibodies were used to ensure equal loading of proteins.

p38 MAP kinase = assay: as above; parameters: species or system rabbit
Method: as §1, §2, §3

JUN kinase = assay: as above; parameters: species or system rabbit
Method: as §1, §2, §3

p42/44 MAP kinase = assay: as above; parameters: species or system rabbit
Method: as §1, §2, §3

[1] = tested on: hearts from chronically hypoxic infant rabbits; parameters: species or system New Zealand White rabbit
Text: Animals. Rabbits used in the study received humane care in compliance with the “Guide for the Care and Use of Laboratory Animals” formulated by the National Research Council, 1996. Infant New Zealand White rabbits were maintained for 10 days in a normoxic (SaO2>95%) or hypoxic (SaO2<85%) environment as described in Baker et al., Circulation 99:1249-54 (1999).
Isolated heart perfusion. Isolated rabbit hearts were perfused with bicarbonate buffer at constant pressure in a retrograde manner and instrumented as described in Baker et al., Circulation 99:1249-54 (1999). Protein kinase inhibitors, potassium channel blockers or nitric oxide synthase inhibitors were added to this perfusate as needed. A 3-way tap, located immediately above the site of cannulation, allowed the entire perfusate to be diverted away from the heart to produce global, no-flow ischemia. Reperfusion was achieved by repositioning of the tap to allow perfusate to be delivered to the heart. Left and right ventricular function was monitored continuously throughout each experiment as described in Baker et al., Circulation 99:1249-54 (1999). End-diastolic pressure was initially set to 3 mmHg for 2 minutes. The balloons were then progressively inflated with a microsyringe to set end-diastolic pressures to 8 mmHg for the left ventricle and 4 mmHg for the right ventricle, with developed pressure and heart rate recorded during steady-state conditions. Coronary flow rate was measured throughout the experiment by timed collections of the coronary effluent from the right side of the heart into a graduated cylinder. Coronary flow rate was expressed as milliliters per minute per gram wet weight.
Resistance to myocardial ischemia. Hearts from infant rabbits were perfused with bicarbonate buffer, and biventricular function was monitored continuously throughout each experiment as described in Rafiee et al., Circulation 106:239-45 (2002). For concentration response studies, hearts were then perfused with erythropoietin (0.5-10.0 U/ml) for 15 minutes prior to 30 minutes ischemia and 35 minutes reperfusion. For mechanism studies with protein kinase inhibitors, potassium channel blockers or nitric oxide synthase inhibitors, hearts were perfused with drugs for 15 minutes alone followed by 15 minutes in combination with erythropoietin prior to ischemia. Hearts perfused with protein kinase inhibitors or potassium channel blockers alone in the absence of erythropoietin for 30 minutes prior to ischemia served as untreated controls for these studies. Recovery of post-ischemic left and right ventricular developed pressure was expressed as a percentage of its pre-drug, pre-ischemic value.
Hearts from 10 day old chronically hypoxic rabbits were treated with erythropoietin at a concentration of 1.0 U/ml.

nitric oxide synthase = assay: Nitrite and nitrate release from isolated hearts; parameters: species or system rabbit; conditions: before 2.3±0.9
Method: Nitrite and nitrate release from hearts before (2.3±0.9 nmoles/min/g) and after (2.4±1.9 nmoles/min/g) 15 minutes treatment with erythropoietin (1.0 U/ml, n=8) were not different.

[2] = erythropoietin 1.0 U/ml for 5 minutes
[3] = erythropoietin 1.0 U/ml for 15 minutes
[4] = chronically hypoxic hearts, EPO 1.0 U/ml for 15 min
[5] = chronically hypoxic hearts, EPO 1.0 U/ml, after 30 min ischemia

erythropoietin: Recombinant human erythropoietin, a glycoprotein hormone, obtained from Cell Science, Inc.
treatment time at which phosphorylation of PKCε was maximal (PKCε): 15 min
PKCε activation and translocation (PKCε; 5 or 15 minutes): activated and translocated from the cytosolic to the particulate fraction
treatment time at which phosphorylation of p38 MAP kinase was maximized (p38 MAP kinase; erythropoietin 1.0 U/ml): 5 min
phosphorylation of p38 MAP kinase (p38 MAP kinase; [2]): phosphorylation of p38 MAP kinase in the cytosolic fraction but not in the particulate fraction
extent of phosphorylation of p38 MAP kinase (p38 MAP kinase; [3]): declined
treatment time at which phosphorylation of JUN kinase was maximized (JUN kinase; erythropoietin 1.0 U/ml): 5 min
phosphorylation of JUN kinase (JUN kinase; [2]): phosphorylation of JUN kinase in the cytosolic fraction but not in the particulate fraction
phosphorylation of JUN kinase in the cytosolic fraction (JUN kinase; [3]): declined
treatment time at which phosphorylation of p42/44 MAP kinase was maximal (p42/44 MAP kinase; erythropoietin 1.0 U/ml): 15 min
phosphorylation of p42/44 MAP kinase (p42/44 MAP kinase; [2]): remarkable phosphorylation of p42/44 MAP kinase in the cytosolic fraction with minor phosphorylation in the particulate fraction
phosphorylation of p42/44 MAP kinase (p42/44 MAP kinase; [3]): enhanced phosphorylation of p42/44 MAP kinase in the cytosolic fraction and in the particulate fraction
adverse effect on ischemic myocardium [1]: did not appear to exert any adverse effect
POST DRUG Coronary flow rate [1, 4]: 5 ± 1 mL/min/g
POST DRUG Heart rate [1, 4]: 181 ± 16 beats/min
POST DRUG Left ventricle developed pressure [1, 4]: 117 ± 15 mmHg
POST DRUG Right ventricle developed pressure [1, 4]: 46 ± 8 mmHg
REPERFUSION (35 min) Coronary flow rate [1, 5]: 6 ± 2 mL/min/g
REPERFUSION (35 min) Heart rate [1, 5]: 204 ± 25 beats/min
REPERFUSION (35 min) Left ventricle developed pressure [1, 5]: 77 ± 7 mmHg
REPERFUSION (35 min) Right ventricle developed pressure [1, 5]: 42 ± 6 mmHg
nitrite and nitrate release from hearts after treatment (nitric oxide synthase; after 15-minute erythropoietin 1.0 U/ml, not different (discussion)): 2.4 ± 0.9 nmol/min/g
nitrite and nitrate release from hearts after treatment (nitric oxide synthase; after 15 minutes erythropoietin 1.0 U/ml, not different): 2.4 ± 1.9 nmol/min/g
